Results reported in US11434242B2, “Dopamine-b-hydroxylase inhibitors” (BIAL-PORTELA & Cª, S.A., priority 2017, dated 2022).

Target: T1, Dopamine beta hydroxylase (Homo sapiens, UniProt P09172)
T1 construct: 125 μl of plasma; tissue Instituto Português do Sangue Transplantação; host or cells: human plasma from healthy donors
T1 sequence (P09172 40-617 limits assumed): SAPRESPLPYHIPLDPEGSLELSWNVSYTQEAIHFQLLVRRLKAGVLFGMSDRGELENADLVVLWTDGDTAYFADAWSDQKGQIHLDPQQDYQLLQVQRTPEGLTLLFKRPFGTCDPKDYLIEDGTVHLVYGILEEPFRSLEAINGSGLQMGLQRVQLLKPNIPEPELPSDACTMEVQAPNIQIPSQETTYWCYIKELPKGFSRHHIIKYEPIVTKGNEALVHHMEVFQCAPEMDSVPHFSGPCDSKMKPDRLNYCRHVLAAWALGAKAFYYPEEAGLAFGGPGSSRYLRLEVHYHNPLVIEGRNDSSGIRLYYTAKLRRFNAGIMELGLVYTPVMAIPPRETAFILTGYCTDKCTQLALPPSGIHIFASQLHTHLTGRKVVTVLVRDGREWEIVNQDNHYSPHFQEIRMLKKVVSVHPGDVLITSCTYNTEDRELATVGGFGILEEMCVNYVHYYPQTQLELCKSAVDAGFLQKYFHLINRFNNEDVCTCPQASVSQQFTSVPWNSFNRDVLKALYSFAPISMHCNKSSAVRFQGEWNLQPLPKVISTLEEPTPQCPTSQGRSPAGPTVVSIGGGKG
Assay: Dopamine beta hydroxylase activity in human plasma
Format: biochemical
Details: for Plasma (0.01 μM), activity in % of control: inhibitor 0.01 μM; for Plasma (0.1 μM), activity in % of control: inhibitor 0.1 μM
Method in brief: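 Octopamine production from tyramine over 45 min at 37° C, measured photometrically at 330 nm after SCX extraction and periodate oxidation against an octopamine standard curve, indicates plasma DβH activity. Compounds tested at final 10, 100 and 1000 nM in human plasma, pH 5.0 cofactor buffer, 10 min preincubation; results as % of control.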

SMILES | Plasma (0.01 μM), activity in % of control | Plasma (0.1 μM), activity in % of control | Plasma (1 μM), activity in % of control (inhibitor 1 μM)
Cn1c(CC(=O)N[C@@H]2CCCOC2)c2n(c1=S)C[C@@]1(c3c(F)ccc(Cl)c3F)C[C@@H]21 [Example 415, 2-((5aS,6aR)-5a-(3-chloro-2,6-difluorophenyl)-2-methyl-3-thioxo-2,3,5,5a,6,6a-hexahydrocyclopropa[3,4]pyrrolo[1,2-c]imidazol-1-yl)-N—((R)-tetrahydro-2H-pyran-3-yl)acetamide] | 14.9 % of control | 2.1 % of control | 
CN(C(=O)Cc1c2n(c(=S)n1C)C[C@H](c1c(F)ccc(F)c1F)C2)C1COC1 [Example 435, (S)—N-methyl-2-(2-methyl-3-thioxo-6-(2,3,6-trifluorophenyl)-2,5,6,7-tetrahydro-3H-pyrrolo[1,2-c]imidazol-1-yl)-N-(oxetan-3-yl)acetamide] | 66.5 % of control | 36.6 % of control | 
O=C(Cc1[nH]c(=S)n2c1C[C@H](c1c(F)ccc(F)c1F)C2)NC1CCOCC1 [Example 376, (R)—N-(tetrahydro-2H-pyran-4-yl)-2-(3-thioxo-6-(2,3,6-trifluorophenyl)-2,5,6,7-tetrahydro-3H-pyrrolo[1,2-c]imidazol-1-yl)acetamide] | 116.3 % of control | 59.3 % of control | 
O=C(Cc1[nH]c(=S)n2c1[C@@H]1C[C@]1(c1cc(Br)ccc1F)C2)NC1CCOC1 (stereo partly drawn) [Example 148, 2-((5aS,6aR)-5a-(5-bromo-2-fluorophenyl)-3-thioxo-2,3,5,5a,6,6a-hexahydrocyclopropa[3,4]pyrrolo[1,2-c]imidazol-1-yl)-N-(tetrahydrofuran-3-yl)acetamide] |  | 17.1 % of control | 0.9 % of control
Cn1c(CC(N)=O)c2n(c1=S)C[C@@]1(c3cc(Br)ccc3F)C[C@@H]21 [Example 280, 2-((5aS,6aR)-5a-(5-bromo-2-fluorophenyl)-2-methyl-3-thioxo-2,3,5,5a,6,6a-hexahydrocyclopropa[3,4]pyrrolo[1,2-c]imidazol-1-yl)acetamide] | 92.8 % of control | 51.4 % of control | 
Fc1cc(F)c(F)c([C@H]2Cc3c(CCc4ccccn4)[nH]c(=S)n3C2)c1F [Example 213, (R)-1-(2-(pyridin-2-yl)ethyl)-6-(2,3,5,6-tetrafluorophenyl)-2,5,6,7-tetrahydro-3H-pyrrolo[1,2-c]imidazole-3-thione] | 105.9 % of control | 66.6 % of control | 
Cn1c(CC(=O)NCC#N)c2n(c1=S)C[C@@]1(c3cc(Br)ccc3F)C[C@@H]21 [Example 305, 2-((5aS,6aR)-5a-(5-bromo-2-fluorophenyl)-2-methyl-3-thioxo-2,3,5,5a,6,6a-hexahydrocyclopropa[3,4]pyrrolo[1,2-c]imidazol-1-yl)-N-(cyanomethyl)acetamide] | 61.2 % of control | 12.2 % of control | 
O=C(Cc1[nH]c(=S)n2c1C[C@H](c1c(F)c(F)cc(F)c1F)C2)NC[C@@H]1CCCO1 [Example 395, 2-((R)-6-(2,3,5,6-tetrafluorophenyl)-3-thioxo-2,5,6,7-tetrahydro-3H-pyrrolo[1,2-c]imidazol-1-yl)-N—(((S)-tetrahydrofuran-2-yl)methyl)acetamide] | 96.9 % of control | 47.8 % of control | 
Cn1c(CCC(=O)N2CCCC2)c2n(c1=S)C[C@@H](c1c(F)c(F)cc(F)c1F)C2 [Example 261, (R)-3-(2-methyl-6-(2,3,5,6-tetrafluorophenyl)-3-thioxo-2,5,6,7-tetrahydro-3H-pyrrolo[1,2-c]imidazol-1-yl)-1-(pyrrolidin-1-yl)propan-1-one] | 86.2 % of control | 31.8 % of control | 
